Here are results for one compound from paper PMC4538381, “Activation of Relaxin Family Receptor 1 from Different Mammalian Species by Relaxin Peptide and Small-Molecule Agonist ML290” (Frontiers in Endocrinology, 2015).

The subject of one experiment is human RXFP1. As to the kind of experiment: CRE-Luc BacMam luciferase assay, human RXFP1. In kind it is cell-based. Also on record: key to Activation of RXFP1 receptors: *: Weak; **: intermediate; ***: strong activation of the receptor. The method, then:
(§1) GloResponse™ CRE-luc2P HEK293T cells stably transfected with cAMP response element-driven luciferase (CRE-Luc) reporter (Promega, Madison, WI, USA) were transduced with human, macaque, pig, and mouse RXFP1 expression BacMam vectors according to the manufacturer’s protocol (Invitrogen) and incubated at room temperature for 2 h in the dark with occasional mixing. The volume of the cell culture was adjusted to 1000 cells/μl with DMEM + 10% FBS. Cells (3 μl, 3000 cells) were plated on 1536-well white solid-bottom TC plates and incubated overnight at 37C°, 5% CO2. Four hundred […] Ro 20-1724 (Sigma-Aldrich, St. Louis, MO, USA) in PBS (1 μl) was added in each well. The cells were treated with serial dilutions of either Forskolin (Sigma-Aldrich), ML290 ([5]) or porcine RLN at final concentrations’ range (57 μM–3.5 pM) for Forskolin and ML290, and (8.7 μM–1.8 pM, or 57 ng/μl–0.012 pg/μl] for RLN. After 2 h stimulation at 37°C, 4 μl of detection reagent from Amplite™ Luciferase reporter gene assay kit (AAT Bioquest, Sunnyvale, CA, USA) was added as a mix of 90% Component A, 5% Component C, and 5% Component D, and incubated at room temperature for 5 min. Luminescent signal was measured on Viewlux uHTS Microplate Imager (PerkinElmer, Santa Clara, CA, USA). The data were processed using GraphPad Software (San Diego, CA, USA).

The next experiment deals with macaque RXFP1. As to the kind of experiment: CRE-Luc BacMam luciferase assay, macaque RXFP1. In kind it is cell-based, rhesus macaque (Macaca mullata). Also on record: key to Activation of RXFP1 receptors: *: Weak; **: intermediate; ***: strong activation of the receptor. On the procedure: as §1
The next experiment concerns pig RXFP1. As to the kind of experiment: CRE-Luc BacMam luciferase assay, pig RXFP1. In kind it is cell-based, pig (Sus scrofa). Also noted: key to Activation of RXFP1 receptors: *: Weak; **: intermediate; ***: strong activation of the receptor. On the procedure: as §1
The subject of a further experiment is mouse RXFP1. As to the kind of experiment: CRE-Luc BacMam luciferase assay, mouse RXFP1. The class given is cell-based. The conditions noted are these: CRE-luc HEK293T, 2 h, highest concentrations of ML290 (range 57 μM–3.5 pM). On the procedure: as §1
The subject of another experiment is GH-RXFP1. As to the kind of experiment: Direct HTRF cAMP assay, guinea pig/human chimera GH-RXFP1. In kind it is cell-based. Also on record: key to Activation of RXFP1 receptors: *: Weak; **: intermediate; ***: strong activation of the receptor. The method, then: (§2) The human, mouse, macaque, and pig RXFP1 cDNA constructs in baculovirus BacMam mammalian expression vector (Invitrogen, Carlsbad, CA, USA) were synthesized at the Eukaryotic Expression Group-Protein Expression laboratory (NCI, Frederick, MD, USA). The PCR primers for RT-PCR were designed to cover the full-length sequence of the open reading frame (ORF). PCR amplifications were performed with PfuUltra High-Fidelity DNA polymerase (Agilent Technologies, Santa Clara, CA, USA). Guinea pig RXFP1 (G-RXFP1) was amplified from guinea pig ovarian cDNA (Zyagen, San Diego, CA, USA). Rabbit RXFP1 (R1-RXFP1 and R2-RXFP1) cDNAs were amplified from rabbit uterus cDNA (Zyagen). All cloning was performed using the In-Fusion® HD Cloning Kit (Clontech Laboratories, Mountain View, CA, USA). Rabbit and guinea pig RXFP1s were cloned into pCR3.1 mammalian expression vector (Invitrogen). […]
(§3) Direct measurement of cAMP production was performed using the HTRF cAMP HiRange kit (CisBio, Bedford, MA, USA). […] The plates were incubated for 60 min at room temperature, and the signal was read on a FLUOstar Omega (BMG Labtech, Cary, NC, USA) plate reader. cAMP levels were calculated according to the manufacturer’s instructions against a standard curve. […]

The subject of another experiment is R1-RXFP1 and R2-RXFP1. As to the kind of experiment: Direct HTRF cAMP assay, rabbit R1-RXFP1 and R2-RXFP1. The class given is cell-based, European rabbit (Oryctolagus cuniculus). Also on record: key to Activation of RXFP1 receptors: *: Weak; **: intermediate; ***: strong activation of the receptor. On the procedure:
The human, mouse, macaque, and pig RXFP1 cDNA constructs in baculovirus BacMam mammalian expression vector (Invitrogen, Carlsbad, CA, USA) were synthesized at the Eukaryotic Expression Group-Protein Expression laboratory (NCI, Frederick, MD, USA). The PCR primers for RT-PCR were designed to cover the full-length sequence of the open reading frame (ORF). PCR amplifications were performed with PfuUltra High-Fidelity DNA polymerase (Agilent Technologies, Santa Clara, CA, USA). Guinea pig RXFP1 (G-RXFP1) was amplified from guinea pig ovarian cDNA (Zyagen, San Diego, CA, USA). Rabbit RXFP1 (R1-RXFP1 and R2-RXFP1) cDNAs were amplified from rabbit uterus cDNA (Zyagen). All cloning was performed using the In-Fusion® HD Cloning Kit (Clontech Laboratories, Mountain View, CA, USA). Rabbit and guinea pig RXFP1s were cloned into pCR3.1 mammalian expression vector (Invitrogen). In order to study RXFP1 surface expression, rabbit cDNAs were cloned into pcDNA3.1™/Zeo+ mammalian expression vector (Invitrogen), which contained an N-terminal FLAG-tag and a bovine prolactin signal sequence (3). […] To make chimeric clones, the human, guinea pig, and rabbit plasmid were used as templates to produce PCR amplicons, which were then used for overlapping PCR and subsequent cloning with the In-Fusion kit. The chimeric guinea pig/human GH-RXFP1 construct contains guinea pig RXFP1 cDNA (G-RXFP1, 1–1499 bp) encoding the ectodomain, TM1, TM2, and part of TM3 (amino acids 1–499 of G-RXFP1), and human RXFP1 (hRXFP1, 1509–2274 bp) encoding TM3 to the C-terminal tail of the receptor (amino acids 503–757 of hRXFP1) (Figure 1A). The recombinant chimeric human–rabbit HR-RXFP1 was made with the 5′-part of the hRXFP1 sequence (1–972 bp, LDLa-LRR9, 1–324 aa), with the remainder being the rabbit RXFP1 sequence (973–2277 bp, LRR9-C-terminal tail, 325–759 aa) (Figure 1A). The recombinant chimeric rabbit–human R1H-RXFP1 or R2H-RXFP1 contains the N-terminal rabbit RXFP1 sequence (1–972 bp for R1-RXFP1 or 975 bp for R2-RXFP1), with the remaining sequence being hRXFP1 (973–2274) (Figure 1A). R1- and R2-RXFP1 denote two variants of rabbit RXFP1 cDNA. All numbers correspond to the full-length cDNAs with the first nucleotide of the ORF.
HEK293T cell transient transfections were performed using Lipofectamine 2000 transfection reagent (Life Technologies, Grand Island, NY, USA) according to the manufacturer’s instructions. Cells transiently expressing the RXFP1 receptors were used within 48 h of transfection. Each construct was tested at least three times. For cell-conditioned media stimulation, HEK293T cells were transfected with the rabbit RLN construct (SQ10) or an empty pCR3.1 vector, and cells were cultured for 24 h. The media was used to stimulate HEK293T cells transfected with the RXFP1 receptors.
Direct measurement of cAMP production was performed using the HTRF cAMP HiRange kit (CisBio, Bedford, MA, USA). HEK293T cells transiently transfected with different RXFP1 receptors were stimulated with various concentrations of RLN peptides or ML290 for 60 min at 37°C, 5% CO2, after which, two HTRF detection reagents (diluted according to assay kit directions in HTRF lysis buffer) were added. The plates were incubated for 60 min at room temperature, and the signal was read on a FLUOstar Omega (BMG Labtech, Cary, NC, USA) plate reader. cAMP levels were calculated according to the manufacturer’s instructions against a standard curve. Statistical processing of the data was performed using GraphPad Prism software.
For orientation: TR-FRET usually uses a lanthanide donor and a delayed reading to cut background.

A further experiment concerns HR-RXFP1. Description: Direct HTRF cAMP assay, human/rabbit chimera HR-RXFP1. In kind it is cell-based. The conditions noted are these: transiently transfected HEK293T, % of hRXFP1 activation by 10 nM RLN. On the procedure:
as §2, §3

The test system of a further experiment is R1H-RXFP1 and R2H-RXFP1. As to the kind of experiment: Direct HTRF cAMP assay, rabbit/human chimeras R1H- and R2H-RXFP1. Also on record: key to Activation of RXFP1 receptors: *: Weak; **: intermediate; ***: strong activation of the receptor. The class given is cell-based. The method, then:
as §2, §3

The test system of a further experiment is R1-RXFP1. As to the kind of experiment: Indirect CRE-β-gal reporter cAMP assay, rabbit R1-RXFP1. Conditions: 6 h at 37°C, % of 5 μM Forskolin response. The class given is cell-based, European rabbit (Oryctolagus cuniculus). The method, then: For the indirect cAMP assay, changes in cAMP signaling were measured by co-transfection of receptors with a CRE-β-galactosidase (CRE-β-gal) reporter construct ([11]). Cells were stimulated for 6 h at 37°C with RLN peptides or ML290 at various concentrations. A non-linear regression sigmoidal dose–response curve was then produced using GraphPad Prism. All experiments were conducted at least three times with three to four replicates each time.
In general terms: Cyclic AMP is a second messenger, typically raised through Gs and lowered through Gi signalling.

Another experiment relates to mouse RXFP1 receptor. Conditions: direct cAMP HTRF assay, ref [5]; cited from earlier work.
The test system of experiment [1] is modified mouse receptor with humanized ECL3. Conditions: ECL3 amino acids mutated, ref [5]; cited from earlier work. The source says:
The rabbit and guinea pig receptors provide new structural templates for analysis of RLN and ML290 activation of RXFP1. […] Indeed, it was shown that primary binding of RLN to RXFP1 involve sites within LRR4, 5, 6, and 8 ([2]). In contrast, the 7TM region of RXFP1, which is the site of allosteric small-molecule agonist binding, is functional in rabbits. The opposite was true for guinea pig RXFP1: despite having the same ECL3 sequence as pig ...

Entries after “also recorded” stand apart in the source; their conditions may differ.

`CC(C)Oc1ccccc1C(=O)Nc1ccccc1C(=O)Nc1cccc(S(=O)(=O)C(F)(F)F)c1` [ML290]: the “Activation of RXFP1 receptors” value is given as “***” in the experiment with human RXFP1 (Human receptor, summary grade, HEK293T cells); “***” with macaque RXFP1 (Macaque receptor, summary grade, HEK293T cells); “***” in the experiment on pig RXFP1 (Pig receptor, summary grade, HEK293T cells); “*” in the experiment with GH-RXFP1 (Guinea pig/human chimera, summary grade, HEK293T cells); “**” with R1-RXFP1 and R2-RXFP1 (Rabbit 1 and 2, summary grade, HEK293T cells); “**” in the experiment on R1H-RXFP1 and R2H-RXFP1 (Rabbit 1(2)/human chimera, summary grade, HEK293T cells). Moreover, the “cAMP response (luciferase activity)” value in the experiment on human RXFP1 (human RXFP1, CRE-luc HEK293T, 2 h, ML290 57 μM–3.5 pM) is “responded strongly to ML290 stimulation”; in the experiment on macaque RXFP1 (macaque RXFP1, CRE-luc HEK293T, 2 h, ML290 57 μM–3.5 pM, RLN 8.7 μM–1.8 pM), “responded to relaxin and ML290 treatment; also recorded: responded strongly to ML290 stimulation; also recorded: fully activated by RLN and ML290”; with pig RXFP1 (pig RXFP1, CRE-luc HEK293T, 2 h, ML290 57 μM–3.5 pM, RLN 8.7 μM–1.8 pM), “responded to relaxin and ML290 treatment; also recorded: responded strongly to ML290 stimulation; also recorded: fully activated by RLN and ML290”; in the experiment with mouse RXFP1, “significant increase in luciferase activity; also recorded: activation of the CRE-reporter was observed with high-dose ML290 treatment on the mouse receptor”. Besides, the cAMP response result in the experiment with GH-RXFP1 (GH-RXFP1, transiently transfected HEK293T, HTRF, 60 min at 37°C, % of 10 μM Forskolin response) was “only partially restored ML290 activation; also recorded: ML290 responsiveness, albeit to a much lower level than in hRXFP1 (p < 0.001); also recorded: efficacy of ML290 stimulation was improved, however, it was still lower than in hRXFP1-transfected cells”; in the experiment with R1-RXFP1 and R2-RXFP1 (R1-RXFP1 and R2-RXFP1, transiently transfected HEK293T, data not shown), “generated an increase in cAMP”; in the experiment on HR-RXFP1 it was “all three receptors respond to ML290”; with R1H-RXFP1 and R2H-RXFP1 (R1H- and R2H-RXFP1, HTRF, transiently transfected HEK293T, % of hRXFP1 activation by 10 nM RLN), “the level of activation of R1H- and R2H-RXFP1 was higher than that of R1-, R2-, or HR-RXFP1-transfected cells”. For the same compound, the “cAMP response, FLAG-tagged receptors” value in the experiment on R1-RXFP1 and R2-RXFP1 (FLAG-tagged R1- and R2-RXFP1, HTRF, 60 min, % of hRXFP1 activation by 10 nM RLN) is on record as “produced a cAMP increase in cells transfected with both rabbit receptors, albeit with lesser efficacy than hRXFP1”. In the experiment with R1-RXFP1 and R2-RXFP1 (R1- and R2-RXFP1, 10 nM relaxin peptides or 5 μM ML290, HTRF), the “statistical significance of response versus hRXFP1” value is recorded as “statistically significant compared to hRXFP1, ***p < 0.001”. The “cAMP response to 5 μM ML290” value in the experiment with R1-RXFP1 and R2-RXFP1 (R1- and R2-RXFP1, 5 μM ML290, HTRF, transiently transfected HEK293T) is recorded as “responded to 5 μM of ML290”. Moreover, the “activation of rabbit RXFP1 (summary)” value with R1-RXFP1 and R2-RXFP1 (rabbit RXFP1 variants, cAMP production, abstract/discussion) is “activated by ML290”. Besides, in the experiment on R1-RXFP1, the “cAMP response (ML290), CRE-β-gal” value was “comparable to hRXFP1”. Further, the “activation of mouse RXFP1 (cAMP)” value in the experiment with mouse RXFP1 receptor is “does not activate the mouse receptor; also recorded: did not see an increase of cAMP; also recorded: no activation being seen in the direct HTRF cAMP assay; also recorded: did not activate the mouse RXFP1 receptor”. In addition, the “activation of mouse receptor with humanized ECL3” value in experiment [1] is reported as “activated by ML290”.
